# Measured values as given in US6365379B1, “Zinc finger peptide cleavage of nucleic acids” (ISIS Pharmaceuticals, Inc., priority 1998, dated 2002).
# What was measured:
# Assay type in all cases: biochemical
# RNA [1] = assay: pH dependence of RNA cleavage; details: bell shaped pH profile, pH 4 to 9
# Protocol: I.D. No. 1. Initial rates were determined as described in connection with FIG. 2. For each rate determination the pH was adjusted using either 20 mM sodium acetate, pH 4, 20 mM sodium phosphate, pH 5 to pH 8 or 20 mM sodium carbonate, pH 9.
# [2] = system: RNA substrate 9713, Seq. I.D. No. 7; assay: Cleavage product analysis of RNA substrate
# Source text: FIG. 3A presents a schematic cleavage product analysis of RNA aubstrate. RNA substrate 9713, Seq. I.D. No. 7, was internally labeled at the penultimate 3′ phosphate using (^32P) cytidine bisphosphate and T4 RNA ligase. The 3′ terminal phosphate was removed using calf intestinal phosphatase and the RNA digested with the wild type peptide as described in the schematic of FIG. 3A. The digestion reactions were divided into equal aliquots and one aliquot subjected to an additional dephosphorylation. The digested products were analyzed by denaturing polyacrylamide gel electrophoresis.
# single stranded RNA = assay: RNA cleavage (ribonuclease) activity of the peptides
# Protocol: (§1) FIG. 1A depicts the Kinetics of RNA Cleavage by the Finger Peptide of Seq. I.D. No. 1. Multiple turnover kinetics are shown for RNA cleavage by the wild-type peptide (open box) and wild-type peptide coordinated with zinc (open triangle). […] I.D. No. 1. Multiple turnover kinetics were performed in 100 μL containing 50 nM peptide, 100 to 1000 nM or a 20—mer RNA oligonucleotide denominated 9713 and having Seq. I.D. No. 7, as […] 32P labeled RNA in 20 mM Sodium Phosphate, pH 7.0, 100 mM KCl, 1 mM EDTA, and 0.1% NP40. Digestion reaction were incubated at 37° C. and quenched at specific time points in 6 M urea. Digestion products were analyzed by denaturing polyacrylamide gel electrophoresis. […] Single turnover kinetics were performed as described above with the exception that peptide ranging in concentration from 50 to 500 nM was added to 50 nM of the 9713 RNA, Seq. I.D. No. 7.
# (§2) I.D. No. 1. Digestion reactions were performed as described in FIG. 1 in the presence of either Mg2+ (solid) or Mn2+ (hashed). Reactions were quenched at 30 min. and digestion products analyzed by denaturing polyacrylamide gel electrophoresis.
# [3] = system: Single strand DNA, double strand RNA and DNA, and 2′-methoxy modified sequences; assay: Cleavage selectivity against other nucleic acids
# Protocol: (§3) Initial rates of cleavage of several single stranded oligonucleotides were determined as described in connection with FIG. 1 with the exception that 50 nM wild-type peptide and 500 nM oligonucleotide were used. Arrows indicate the position of the peptide induced cleavage. The relative intensity of the cleavage product for each respective cleavage sites is indicated by the length of the arrows.
# RNA [4] = assay: Effect of divalent cations on RNA cleavage activity; details: Mg2+ and Mn2+
# Protocol: as §2
# [5] = system: 9713 (RNA) 20-mer RNA oligonucleotide, Seq. I.D. No. 7; assay: Initial rate of cleavage of single stranded oligonucleotide by the peptides; set-up: unit not given here
# Protocol: as §1
# Initial rates of cleavage of several single stranded oligonucleotides were determined as described in connection with FIG. 1 with the exception that 50 nM wild-type peptide and 500 nM oligonucleotide were used. […]
# I.D. No. 1. […] Reactions were quenched at 30 min. and digestion products analyzed by denaturing polyacrylamide gel electrophoresis.
# Initial rates were determined as described in connection with FIG. 2. Peptide structure was determined by SDS PAGE and LC-MS.
# [6] = system: 3058 (RNA) single stranded oligonucleotide, SEQ ID 4; assay: Initial rate of cleavage of single stranded oligonucleotide by the finger peptide; set-up: unit not given here; details: substrate 3058 (RNA); 50 nM wild-type peptide, 500 nM oligonucleotide
# Protocol: as §1, §3
# [7] = system: 12079 (2′-OMe) single stranded oligonucleotide, SEQ ID 3; assay: as above; set-up: unit not given here; details: substrate 12079 (2′-OMe); 50 nM wild-type peptide, 500 nM oligonucleotide
# Protocol: as §1, §3
# [8] = system: 2755 (RNA) single stranded oligonucleotide, SEQ ID 5; assay: as above; set-up: unit not given here; details: substrate 2755 (RNA); 50 nM wild-type peptide, 500 nM oligonucleotide
# Protocol: as §1, §3
# [9] = system: 12147 (RNA) single stranded oligonucleotide, SEQ ID 6; assay: as above; set-up: unit not given here; details: substrate 12147 (RNA); 50 nM wild-type peptide, 500 nM oligonucleotide
# Protocol: as §1, §3
# [10] = system: 4701 (DNA) single stranded oligonucleotide, SEQ ID 2; assay: as above; set-up: unit not given here; details: substrate 4701 (DNA); 50 nM wild-type peptide, 500 nM oligonucleotide
# Protocol: as §1, §3
# [11] = system: 20-mer RNA oligonucleotide 9713, Seq. I.D. No. 7; assay: Multiple turnover kinetics of RNA cleavage, Lineweaver-Burk analysis; details: zinc-free form of the finger peptide
# Protocol: as §1
substance,measurement,setting,value
HOOC-KTYQCQYCEY RSADSSNLKTHIKTKHSKEK-NH2 [Wild type],pH for RNA cleavage,RNA [1],7.0
same,termini of RNA cleavage products,[2]; listed as SEQ ID No. 1,3′-phosphate and 5′-hydroxyl
same,termini of RNA cleavage products,[2]; listed as wild type peptide,3′-phosphate and 5′-hydroxyl termini
same,cleavage site specificity within single stranded RNA,single stranded RNA,preferentially cleave 5′-pyr-A-3′
same,cleavage rate of RNA sequences containing 5′-pyr-A-3′ relative to those without,single stranded RNA; fold faster,10-30 fold
same,ribonuclease activity on coordination of the peptide with zinc,single stranded RNA; peptide coordinated with zinc,complete loss of ribonuclease activity
same,hydrolysis of non single strand RNA substrates,[3]; listed as SEQ ID No. 1,not hydrolyzed
same,hydrolysis of non single strand RNA substrates,[3]; listed as the peptide,not degraded
same,requirement of divalent cations for catalysis,RNA [4],not to be required for catalysis
same,V0,"[5]; substrate 9713 (RNA), 50 nM wild-type peptide, 500 nM oligonucleotide",6100
same,V0 (9713),"[5]; substrate 9713 RNA, wild type and mutant peptides",6000 ± 130
same,V0,[6],153
same,V0,[7],0
same,V0,[8],422
same,V0,[9],1200
same,V0,[10],0
same,Kcat,[11],0.96 s⁻¹
same,Km,[11],0.105 µM
same,V0,[11],6 nmol/L/min
